Measured values reported in publication PMC9061857, “A fluorogenic probe for granzyme B enables in-biopsy evaluation and screening of response to anticancer immunotherapies” (Nature Communications, 2022).
Where no end group is shown, it is not given here.

Key:
[1] = target: T1, human GzmB (hGzmB) (Homo sapiens, UniProt P10144); experiment: Fluorescence assay with recombinant hGzmB (fluorogenic response, time course); type: biochemical; details: for t50: probe 25 μM, hGzmB 20 nM
T1 construct: For active GzmB vs pro-GzmB, p < 0.0001
T1 sequence (P10144 21-247): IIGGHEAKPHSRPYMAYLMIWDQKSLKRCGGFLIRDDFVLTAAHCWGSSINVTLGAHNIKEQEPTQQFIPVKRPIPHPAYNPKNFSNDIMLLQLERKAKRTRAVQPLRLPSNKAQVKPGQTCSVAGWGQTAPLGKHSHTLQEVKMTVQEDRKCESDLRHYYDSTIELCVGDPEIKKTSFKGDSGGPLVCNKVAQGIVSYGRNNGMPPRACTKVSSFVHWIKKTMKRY
Procedure: Fluorescence-based assays with different enzymes were performed in the appropriate buffers. Probes (25 μM) were added to enzymes (20 nM or at the indicated concentrations) in 384-well plates and their fluorescence emission was recorded at 450 nm (for AMC) or 510 nm (for BODIPY) at 37 °C using a Synergy H1 Hybrid spectrophotometer. In experiments with Ac-IEPD-CHO (50 μM), the inhibitor was preincubated for 1 h with GzmB before the addition of any probe.

[2] = target: T1, human GzmB (hGzmB); experiment: HPLC conversion of fluorogenic peptides by hGzmB; type: biochemical
Procedure: Supplementary Figure 1. Reactivity of fluorogenic substrates against human GzmB and limits of detection. a) Reaction conversion rates (by HPLC-UV detection at 350 nm) for Ac-IEPD-AMC (50 μM) in TRIS buffer (see Methods) at 37 °C containing different concentrations of hGzmB. Data presented as mean values±SEM (n=3 independent biological experiments). b) Reaction conversion rates (by HPLC-UV detection at 500 nm) for the tetrapeptide T1 (25 μM) in TRIS buffer at 37 °C containing different concentrations of hGzmB. Data presented as mean values±SEM (3 independent biological experiments).
(§1) Source data provided as a Source Data file.
(§2) (1 picture or pasted object on this page, not shown here)
Supplementary Table 1. Chemical structures and reactivity of FRET-based tetrapeptides against human GzmB.
Code Structure Linker Quencher HPLC conversion HPLC conversion […]
Supplementary Table 2. Sequences and reactivity of FRET-based hexapeptides against […]
Code Peptide sequence HPLC conversion
H1 Ile-Glu-Pro-Asp-Ala-Gly 75%
H2 Ile-Glu-Pro-Asp-Ser-Gly 80%
H3 Ile-Glu-Pro-Asp-Ser-Leu 80%
H4 Ile-Glu-Pro-Asp-Trp-Leu 82%
H6 Ile-Glu-Pro-Asp-Trp-Arg 40%
H7 Ile-Glu-Pro-Asp-Arg-Leu 60%
H5m Ile-Glu-Phe-Asp-Ala-Leu 70%

[3] = system: EpCAM+ epithelial cells from lung cancer patients; experiment: Flow cytometry of paired tumor and non-tumor lung tissue; type: cell-based, human; details: H5 5 μM, 30 min r.t.
Procedure: Tissue samples of tumor and paired non-tumor (n = 5 for both conditions) lungs were taken from treatment-naïve patients undergoing surgical resection. Participants provided written informed consent and the study was approved by NHS Lothian REC and facilitated by NHS Lothian SAHSC Bioresource (REC No: 15/ES/0094). Fresh samples were minced, incubated with 1 mg mL^−1 collagenase IV, 1 mg mL^−1 DNase 1, 50 U mL^−1 hyaluronidase in DMEM for 1 h at 37 °C with agitation, and passed through 100 and 70 µm filters followed by red cell lysis. […] Cells were washed twice in PBS 2% fetal calf serum (FCS) prior to collection. For microscopy, formalin-fixed paraffin-embedded slides of non-small cell lung cancer and paired non-cancerous lung were deparaffinized, rehydrated, stained with hematoxylin and eosin, followed by dehydration and imaging on a Zeiss AxioScan microscope.
Supplementary Figure 17. Gating strategy for assessing the probe H5 in human lung tissue. All cells were gated to exclude debris and gated on singlets. Leukocytes were excluded on the basis of CD45 positivity, and live EpCAM positive cells were selected by excluding cells stained positive with the Zombie UV viability dye (1:1000 dilution). Probe H5 positivity in the live EpCAM+ population in non-tumor and tumor tissues was assessed against cells stained in the absence of prob e H5 giving a background of <1% positivity.
as §2

[4] = system: mKate-E0771 cells; experiment: MTT cell viability assay; type: cell-based, mouse; details: 1 h; for Cell viability (MTT), normalized to untreated cells: 37 °C
Procedure: Supplementary Figure 9. Cell viability assays in mKate-E0771 cancer cells. mKate-E0771 cells were plated in 96-well plates (50,000 cells well-1) and incubated at the […]
Cell viability was determined using a commercially available MTT kit (Invitrogen) with values normalized to untreated cells.
Data presented as mean values±SEM (2 independent experiments with 3 replicates for each). P values were obtained from ONE-ANOVA tests with multiple comparisons.
as §1, §2

IEPDAL [H5, FRET hexapeptide IEPDAL with BODIPY-FL fluorophore at the N-terminal end and Dabcyl quencher]
specificity for hGzmB over other enzymes ([1]; caspases, granzymes, MMPs, neutrophil elastase, pro-hGzmB): minimal response to other enzymes | t50 ([1]; Data 1): 7 min | t50 ([1]; Data 2): 7 min | t50 ([1]; Data 3): 7 min | time to complete cleavage ([2]; 20 nM hGzmB): less than 30 min | HPLC conversion (20 nM hGzmB, 2 h) ([2]; probe 25 μM (Ac-IEPD-AMC 50 μM), TRIS buffer, 37 °C, HPLC-UV): 100% | percentage of EpCAM+ H5+ epithelial cells ([3]; Healthy (non-tumor) tissue, Data 1): 10.4% | percentage of EpCAM+ H5+ epithelial cells ([3]; Healthy (non-tumor) tissue, Data 2): 9.7% | percentage of EpCAM+ H5+ epithelial cells ([3]; Healthy (non-tumor) tissue, Data 3): 11.0% | percentage of EpCAM+ H5+ epithelial cells ([3]; Healthy (non-tumor) tissue, Data 4): 6.6% | percentage of EpCAM+ H5+ epithelial cells ([3]; Healthy (non-tumor) tissue, Data 5): 10.4% | percentage of EpCAM+ H5+ epithelial cells ([3]; Tumor tissue, Data 1): 19.4% | percentage of EpCAM+ H5+ epithelial cells ([3]; Tumor tissue, Data 2): 19.1% | percentage of EpCAM+ H5+ epithelial cells ([3]; Tumor tissue, Data 3): 21.3% | percentage of EpCAM+ H5+ epithelial cells ([3]; Tumor tissue, Data 4): 18.6% | percentage of EpCAM+ H5+ epithelial cells ([3]; Tumor tissue, Data 5): 36.0% | Cell viability (MTT), normalized to untreated cells ([4]; H5 3.1 (head prints mM), Data 1): 107% | Cell viability (MTT), normalized to untreated cells ([4]; H5 3.1 (head prints mM), Data 2): 102% | Cell viability (MTT), normalized to untreated cells ([4]; H5 3.1 (head prints mM), Data 3): 89% | Cell viability (MTT), normalized to untreated cells ([4]; H5 3.1 (head prints mM), Data 4): 85% | Cell viability (MTT), normalized to untreated cells ([4]; H5 3.1 (head prints mM), Data 5): 94% | Cell viability (MTT), normalized to untreated cells ([4]; H5 3.1 (head prints mM), Data 6): 89% | Cell viability (MTT), normalized to untreated cells ([4]; H5 6.3 (head prints mM), Data 1): 99% | Cell viability (MTT), normalized to untreated cells ([4]; H5 6.3 (head prints mM), Data 2): 93% | Cell viability (MTT), normalized to untreated cells ([4]; H5 6.3 (head prints mM), Data 3): 97% | Cell viability (MTT), normalized to untreated cells ([4]; H5 6.3 (head prints mM), Data 4): 95% | Cell viability (MTT), normalized to untreated cells ([4]; H5 6.3 (head prints mM), Data 5): 89% | Cell viability (MTT), normalized to untreated cells ([4]; H5 6.3 (head prints mM), Data 6): 90% | Cell viability (MTT), normalized to untreated cells ([4]; H5 12.5 (head prints mM), Data 1): 107% | Cell viability (MTT), normalized to untreated cells ([4]; H5 12.5 (head prints mM), Data 2): 106% | Cell viability (MTT), normalized to untreated cells ([4]; H5 12.5 (head prints mM), Data 3): 99% | Cell viability (MTT), normalized to untreated cells ([4]; H5 12.5 (head prints mM), Data 4): 96% | Cell viability (MTT), normalized to untreated cells ([4]; H5 12.5 (head prints mM), Data 5): 84% | Cell viability (MTT), normalized to untreated cells ([4]; H5 12.5 (head prints mM), Data 6): 88% | Cell viability (MTT), normalized to untreated cells ([4]; H5 25 (head prints mM), Data 1): 107% | Cell viability (MTT), normalized to untreated cells ([4]; H5 25 (head prints mM), Data 2): 102% | Cell viability (MTT), normalized to untreated cells ([4]; H5 25 (head prints mM), Data 3): 99% | Cell viability (MTT), normalized to untreated cells ([4]; H5 25 (head prints mM), Data 4): 76% | Cell viability (MTT), normalized to untreated cells ([4]; H5 25 (head prints mM), Data 5): 81% | Cell viability (MTT), normalized to untreated cells ([4]; H5 25 (head prints mM), Data 6): 81% | cytotoxicity ([4]; MTT, 37 °C (Fig. S9)): not cytotoxic
